Reference: PubChem BioAssay AID274 (DTP/NCI, 2004)
Values joined by “and” are separate entries in the source; they are usually repeats but may differ in a detail not shown here. Equal entries are not always repeated. Toxic doses and inconclusive results are not listed. Rule for the calls: active = survival T/C of 150% or more; inactive = T/C below 125% in these data.

Tested on: BDF1 mice, Lewis lung carcinoma iv, survival T/C
Assay: NCI In Vivo Anticancer Drug Screen. Data for tumor model Lewis Lung Carcinoma (intravenous) in B6D2F1 (BDF1) mice
Details: endpoint: median survival time, higher = longer survival
Method: The antitumor activity of compounds was measured in mice bearing transplantable tumors. Survival or tumor size were measured and the results are expressed as the measurement made in the treated group (T) divided by the measurement made in the vehicle treated control group (C). The tumor model used in this assay is Lewis Lung Carcinoma (intravenous) in B6D2F1 (BDF1) mice

[1] = dose: 32.0 mg/kg/injection, schedule: Q01DX009 (ip), vehicle: Klucel (hydroxypropylcellulose) (HPC)
[2] = dose: 64.0 mg/kg/injection, schedule: Q01DX009 (ip), vehicle: Klucel (hydroxypropylcellulose) (HPC)
[3] = dose: 128.0 mg/kg/injection, schedule: Q01DX009 (ip), vehicle: Klucel (hydroxypropylcellulose) (HPC)
[4] = dose: 12.5 mg/kg/injection, schedule: Q01DX009 (ip), vehicle: saline with Tween-80
[5] = dose: 25.0 mg/kg/injection, schedule: Q01DX009 (ip), vehicle: saline with Tween-80
[6] = dose: 50.0 mg/kg/injection, schedule: Q01DX009 (ip), vehicle: saline with Tween-80
[7] = dose: 100.0 mg/kg/injection, schedule: Q01DX009 (ip), vehicle: saline with Tween-80
[8] = dose: 200.0 mg/kg/injection, schedule: Q01DX009 (ip), vehicle: saline with Tween-80
[9] = dose: 400.0 mg/kg/injection, schedule: Q01DX009 (ip), vehicle: saline with Tween-80

Measured: T/C

Nc1ncnc2nc[nH]c12
inactive: [1] 99 % of control | [2] 99 % of control | [3] 98 % of control

c1ccc([I+]c2ccccc2)cc1
inactive: dose: 1.0 mg/kg/injection, schedule: Q01DX009 (ip), vehicle: saline 98 % of control | dose: 2.0 mg/kg/injection, schedule: Q01DX009 (ip), vehicle: saline 100 % of control | dose: 4.0 mg/kg/injection, schedule: Q01DX009 (ip), vehicle: saline 109 % of control

CC(C#N)(C#N)N=Nc1ccc(Cl)cc1Cl
inactive: [4] 105 % of control | [5] 94 % of control | [6] 92 % of control | [7] 103 % of control | [8] 95 % of control | [9] 101 % of control

C[C@H](N)C(=O)N[C@@H]1[C@H]2C(=C(O)C[C@@H](O)[C@@H]2O)C(=O)O[C@]1(C)C(Cl)Cl
inactive: dose: 0.38 mg/kg/injection, schedule: Q01DX009 (ip), vehicle: Klucel (hydroxypropylcellulose) (HPC) 101 % of control | dose: 0.75 mg/kg/injection, schedule: Q01DX009 (ip), vehicle: Klucel (hydroxypropylcellulose) (HPC) 102 % of control | dose: 1.5 mg/kg/injection, schedule: Q01DX009 (ip), vehicle: Klucel (hydroxypropylcellulose) (HPC) 108 % of control

S=c1nc[nH]c2nc[nH]c12
inactive: dose: 7.5 mg/kg/injection, schedule: Q01DX009 (ip), vehicle: Klucel (hydroxypropylcellulose) (HPC) 97 % of control | dose: 15.0 mg/kg/injection, schedule: Q01DX005 (ip), vehicle: Klucel (hydroxypropylcellulose) (HPC) 98 % of control | dose: 15.0 mg/kg/injection, schedule: Q01DX009 (ip), vehicle: Klucel (hydroxypropylcellulose) (HPC) 113 % of control and 87 % of control | dose: 30.0 mg/kg/injection, schedule: Q01DX005 (ip), vehicle: Klucel (hydroxypropylcellulose) (HPC) 122 % of control | dose: 30.0 mg/kg/injection, schedule: Q01DX009 (ip), vehicle: Klucel (hydroxypropylcellulose) (HPC) 92 % of control and 108 % of control | dose: 60.0 mg/kg/injection, schedule: Q01DX005 (ip), vehicle: Klucel (hydroxypropylcellulose) (HPC) 93 % of control | dose: 120.0 mg/kg/injection, schedule: Q01DX005 (ip), vehicle: Klucel (hydroxypropylcellulose) (HPC) 103 % of control | dose: 240.0 mg/kg/injection, schedule: Q01DX005 (ip), vehicle: Klucel (hydroxypropylcellulose) (HPC) 95 % of control

CSCCC(N)C(=O)O (configuration not stated)
inactive: dose: 18.75 mg/kg/injection, schedule: Q01DX009 (ip), vehicle: saline with Tween-80 101 % of control | dose: 37.5 mg/kg/injection, schedule: Q01DX009 (ip), vehicle: saline with Tween-80 93 % of control | dose: 40.0 mg/kg/injection, schedule: Q01DX009 (ip), vehicle: saline with Tween-80 100 % of control | dose: 75.0 mg/kg/injection, schedule: Q01DX009 (ip), vehicle: saline with Tween-80 101 % of control | dose: 80.0 mg/kg/injection, schedule: Q01DX009 (ip), vehicle: saline with Tween-80 97 % of control | dose: 150.0 mg/kg/injection, schedule: Q01DX009 (ip), vehicle: saline with Tween-80 91 % of control | dose: 160.0 mg/kg/injection, schedule: Q01DX009 (ip), vehicle: saline with Tween-80 95 % of control | dose: 320.0 mg/kg/injection, schedule: Q01DX009 (ip), vehicle: saline with Tween-80 100 % of control

O=C1NC(O)c2ccccc2O1 (configuration not stated)
inactive: [4] 108 % of control | [5] 103 % of control | [6] 105 % of control | [7] 101 % of control | [8] 112 % of control | [9] 102 % of control

CN(C)[C@@H]1C(=O)C(C(N)=O)=C(O)[C@@]2(O)C(=O)C3=C(O)c4c(O)ccc(Cl)c4[C@@](C)(O)[C@H]3C[C@@H]12
inactive: dose: 12.5 mg/kg/injection, schedule: Q01DX009 (ip), vehicle: saline 111 % of control | dose: 25.0 mg/kg/injection, schedule: Q01DX009 (ip), vehicle: saline 101 % of control | dose: 50.0 mg/kg/injection, schedule: Q01DX009 (ip), vehicle: saline 99 % of control | dose: 100.0 mg/kg/injection, schedule: Q01DX009 (ip), vehicle: saline 103 % of control | dose: 200.0 mg/kg/injection, schedule: Q01DX009 (ip), vehicle: saline 107 % of control

CC(C)NNC(=O)c1ccncc1
inactive: dose: 19.4 mg/kg/injection, schedule: Q01DX007 (ip), vehicle: Klucel (hydroxypropylcellulose) (HPC) 95 % of control | dose: 32.4 mg/kg/injection, schedule: Q01DX007 (ip), vehicle: Klucel (hydroxypropylcellulose) (HPC) 91 % of control | dose: 54.0 mg/kg/injection, schedule: Q01DX007 (ip), vehicle: Klucel (hydroxypropylcellulose) (HPC) 95 % of control | dose: 90.0 mg/kg/injection, schedule: Q01DX007 (ip), vehicle: Klucel (hydroxypropylcellulose) (HPC) 96 % of control | dose: 150.0 mg/kg/injection, schedule: Q01DX007 (ip), vehicle: Klucel (hydroxypropylcellulose) (HPC) 91 % of control

C[CH2][Ge]([CH2]C)[CH2]C.C[CH2][Ge]([CH2]C)[CH2]C.C[CH2][Ge]([CH2]C)[O][Ge]([CH2]C)[CH2]C
inactive: dose: 6.25 mg/kg/injection, schedule: Q01DX009 (ip), vehicle: saline with Tween-80 97 % of control | [4] 96 % of control | [5] 103 % of control | [6] 100 % of control

CCCCCCCCCCCCCCC/C([O-])=N/[N+](C)(C)CC(C)O (configuration not stated)
inactive: dose: 12.5 mg/kg/injection, schedule: Q01DX001 (ip), vehicle: saline 95 % of control | dose: 25.0 mg/kg/injection, schedule: Q01DX001 (ip), vehicle: saline 96 % of control | dose: 50.0 mg/kg/injection, schedule: Q01DX001 (ip), vehicle: saline 97 % of control | dose: 100.0 mg/kg/injection, schedule: Q01DX001 (ip), vehicle: saline 104 % of control | dose: 200.0 mg/kg/injection, schedule: Q01DX001 (ip), vehicle: saline 108 % of control | dose: 400.0 mg/kg/injection, schedule: Q01DX001 (ip), vehicle: saline 102 % of control

Cc1ccc(S(=O)(=O)NC(=O)OC23COCN2COC3)cc1
inactive: [4] 98 % of control | [5] 105 % of control | [6] 96 % of control | [7] 98 % of control | [8] 98 % of control | [9] 101 % of control

COc1cc(C(=O)c2cocc2C(=O)c2ccc3c(c2)OCO3)cc(OC)c1OC
inactive: dose: 50.0 mg/kg/injection, schedule: Q01DX009 (ip), vehicle: Klucel (hydroxypropylcellulose) (HPC) 88 % of control | dose: 400.0 mg/kg/injection, schedule: Q01DX009 (ip), vehicle: Klucel (hydroxypropylcellulose) (HPC) 94 % of control

O=CC(O)C(O)C(O)C(O)C(=O)O.[NH-]C1CCCCC1[NH-].[Pt+2] (configuration not stated)
inactive: dose: 0.1 mg/kg/injection, schedule: Q01DX009 (ip), vehicle: suspension in saline 92 % of control | dose: 0.2 mg/kg/injection, schedule: Q01DX009 (ip), vehicle: suspension in saline 92 % of control | dose: 0.39 mg/kg/injection, schedule: Q01DX009 (ip), vehicle: suspension in saline 104 % of control | dose: 0.78 mg/kg/injection, schedule: Q01DX009 (ip), vehicle: suspension in saline 112 % of control | dose: 1.56 mg/kg/injection, schedule: Q01DX009 (ip), vehicle: suspension in saline 108 % of control

Nc1ncnc2c1ncn2C1OC(CO)C(O)C1O (configuration not stated)
inactive: [1] 101 % of control | [2] 108 % of control | [3] 97 % of control | dose: 256.0 mg/kg/injection, schedule: Q01DX009 (ip), vehicle: Klucel (hydroxypropylcellulose) (HPC) 106 % of control | dose: 512.0 mg/kg/injection, schedule: Q01DX009 (ip), vehicle: Klucel (hydroxypropylcellulose) (HPC) 87 % of control

Nc1nc2n[nH]nc2c(=O)[nH]1
inactive: dose: 25.0 mg/kg/injection, schedule: Q01DX009 (ip), vehicle: suspension in saline 93 % of control | dose: 50.0 mg/kg/injection, schedule: Q01DX009 (ip), vehicle: suspension in saline 98 % of control
